Assay [1] addresses Glycogen synthase kinase-3 alpha (Homo sapiens, UniProt P49840). Put plainly: TR-FRET Assay. The essentials:
(§1)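 Enzyme and test compound were first incubated together for 30 minutes in assay buffer. The kinase reaction followed and was stopped with EDTA. The pSer641 signal was read by time-resolved FRET.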
A general note: TR-FRET usually uses a lanthanide donor and a delayed reading to cut background.

Assay [2] concerns the target Glycogen synthase kinase-3 beta (Homo sapiens, UniProt P49841). Kind of assay: TR-FRET Assay. A digest of the protocol:
as §1

Where “and” joins values, the source holds several entries; their conditions need not be identical. Identical values can stand only once.

A word on the IC50: it is the concentration needed to halve the response being measured. Read a high IC50 as weaker potency in that assay.

Glycogen synthase kinase-3 beta, sequence (P49841 whole entry): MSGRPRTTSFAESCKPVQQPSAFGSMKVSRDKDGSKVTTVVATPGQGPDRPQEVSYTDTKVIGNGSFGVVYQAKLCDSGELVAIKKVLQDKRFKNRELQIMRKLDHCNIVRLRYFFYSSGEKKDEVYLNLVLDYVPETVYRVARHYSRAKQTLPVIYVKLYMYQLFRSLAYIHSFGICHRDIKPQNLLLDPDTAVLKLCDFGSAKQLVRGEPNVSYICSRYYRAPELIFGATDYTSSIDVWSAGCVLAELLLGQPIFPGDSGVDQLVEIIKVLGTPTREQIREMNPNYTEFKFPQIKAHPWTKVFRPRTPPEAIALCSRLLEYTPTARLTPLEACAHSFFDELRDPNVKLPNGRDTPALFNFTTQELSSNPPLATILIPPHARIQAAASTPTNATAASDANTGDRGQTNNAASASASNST
Glycogen synthase kinase-3 alpha, sequence (P49840 whole entry): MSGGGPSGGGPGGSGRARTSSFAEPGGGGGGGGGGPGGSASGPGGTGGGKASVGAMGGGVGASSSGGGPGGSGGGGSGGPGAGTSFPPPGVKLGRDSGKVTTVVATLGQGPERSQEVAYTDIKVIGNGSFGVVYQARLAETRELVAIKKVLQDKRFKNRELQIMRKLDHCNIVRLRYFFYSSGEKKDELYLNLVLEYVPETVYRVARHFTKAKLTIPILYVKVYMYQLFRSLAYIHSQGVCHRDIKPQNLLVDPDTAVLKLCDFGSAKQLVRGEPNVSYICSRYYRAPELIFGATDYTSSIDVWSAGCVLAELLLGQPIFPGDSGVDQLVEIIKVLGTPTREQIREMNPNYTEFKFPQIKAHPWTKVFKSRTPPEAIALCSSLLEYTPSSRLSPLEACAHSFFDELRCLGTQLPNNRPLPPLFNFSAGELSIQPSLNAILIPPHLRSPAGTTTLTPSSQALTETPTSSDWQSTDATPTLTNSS

With `CC[C@]1(c2cccc(C(C)C)c2)C2=CN=NC2NC2=C1C(=O)CC(C)(C)C2` (stereo partly drawn) [US20250313563, Compound 810373], the IC50 is < 100 nM and 100 to 1000 nM in assay [1]; < 100 nM and 1000 to 5000 nM in assay [2].

Turning to `CCC1(c2cccc(-c3ccncc3)c2)C2=CN=NC2NC2=C1C(=O)CC(C)C2` (stereo not drawn) [US20250313563, Compound 856947], the results for the IC50 in assay [1] and in assay [2] were < 100 nM and 100 to 1000 nM, respectively.

Regarding `CC[C@@]1(c2cccc(-c3ccncc3C(F)(F)F)c2)C2=CN=NC2NC2=C1C(=O)NC(C)(C)C2` (stereo partly drawn) [US20250313563, Compound 952025], the IC50 in assay [1] is < 100 nM; in assay [2], < 100 nM and 1000 to 5000 nM.

For the compound `CC[C@]1(c2cccc(N3CCCCC3)c2)C2=C(CC(C)(C)CC2=O)NC2N=NC(C(F)(F)F)=C21` (stereo partly drawn) [US20250313563, Compound 816800], the IC50 in assay [1] and in assay [2] was < 100 nM each time.

As to `CC[C@@]1(c2ccccc2)C2=C(N=NC2)NC2=C1C(=O)[C@@H]1CC[C@H]2C1` [US20250313563, Compound 791269], the IC50 in assay [1] and in assay [2] was 100 to 1000 nM in each case.

Consider `CCC1(c2cccc(C(F)(F)F)c2)C2=C(N=NC2)NC2=C1C(=O)N(Cc1ccccc1)C2` (stereo not drawn) [US20250313563, Compound 917159], for which the IC50 is < 100 nM in assay [1] and 100 to 1000 nM in assay [2].

On to `CC1(C)CC(=O)C2=C(C1)NC1=C(CN=N1)C21CC(c2ccccc2)C1` (stereo not drawn) [US20250313563, Compound 917081], for which the IC50 in assay [1] and in assay [2] was < 100 nM in each case.

In the case of `CC[C@]1(c2cccc(-c3ccnc(C)c3F)c2)C2=CN=NC2NC2=C1C(=O)NC(C)(C)C2` (stereo partly drawn) [US20250313563, Compound 948311], the IC50 in assay [1] lay within 100 to 1000 nM; in assay [2], 1000 to 5000 nM.

`CC[C@@]1(c2cccc(-c3ccnc(C)c3)c2)C2=CN=NC2NC2=C1C(=O)N[C@@H](C)C2` (stereo partly drawn) [US20250313563, Compound 926302]: the IC50 in assay [1] was 1000 to 5000 nM; in assay [2] it was > 5000 nM.

As to `CC[C@@]1(c2cccc(N3CCOCC3)c2)C2=C(CC(C)(C)CC2=O)NC2N=NC(C)=C21` (stereo partly drawn) [US20250313563, Compound 889582], the IC50 in assay [1] is 100 to 1000 nM; in assay [2] it was 1000 to 5000 nM.

As to `CC[C@]1(c2cccc(N(C)c3ncccn3)c2)C2=C(CC(C)(C)NC2=O)NC2N=NC(Cl)=C21` (stereo partly drawn) [US20250313563, Compound 951592], the IC50 in assay [1] and in assay [2] was > 5000 nM throughout.

In the case of `CC[C@@]1(c2cccc(-c3cnn(C)c3)c2)C2=C(CC(C)(C)CC2=O)NC2N=NC(C(F)(F)F)=C21` (stereo partly drawn) [US20250313563, Compound 811567], the IC50 in assay [1] and in assay [2] was 100 to 1000 nM each time.

Take `CCC1(c2cccc(-c3ccnc(C)c3)c2)C2=C(CC(C)(C)NC2=O)NC2N=NC(Cl)=C21` (stereo not drawn) [US20250313563, Compound 948998]: the IC50 in assay [1] is < 100 nM and 100 to 1000 nM; in assay [2], < 100 nM and 1000 to 5000 nM.

As for `CC1(C)CC(=O)C2=C(C1)NC1=C(CN=N1)C21COC2(CN(C(=O)c3ccccc3)C2)C1` (stereo not drawn) [US20250313563, Compound 917231], the IC50 in assay [1] and in assay [2] was < 100 nM throughout.

Take `COc1ccc(S(=O)(=O)N2CCC3(CC2)C2=C(N=NC2)NC2=C3C(=O)CC(C)(C)C2)c(C)c1C` [US20250313563, Compound 945662]: the IC50 is < 100 nM in assay [1] and 100 to 1000 nM in assay [2].

Take `CC1N=NC2=C1C1(CN(S(=O)(=O)CC3CC3)C1)C1=C(CC(C)(C)CC1=O)N2` (stereo not drawn) [US20250313563, Compound 107828]: the IC50 was < 100 nM in assay [1] and 100 to 1000 nM in assay [2].

On to `CC[C@]1(c2cccc(C(F)(F)F)c2)C2=CN=NC2NC2=C1C(=O)N[C@@H](c1ccccc1)C2` (stereo partly drawn) [US20250313563, Compound 945362], for which the IC50 in assay [1] is 1000 to 5000 nM; in assay [2], > 5000 nM.

Consider `CC(=O)N1CCC2(CC1)C1=C(N=NC1)NC1=C2C(=O)CC(C)(C)C1` [US20250313563, Compound 826649], for which the values for the IC50 in assay [1] and in assay [2] were 100 to 1000 nM and 1000 to 5000 nM, respectively.

For `O=C1C[C@@H](C(F)(F)F)CC2=C1C1(CCOCC1)C1=C(N=NC1)N2` [US20250313563, Compound 901478], the IC50 in assay [1] and in assay [2] was 100 to 1000 nM in each case.

Source of the values: BindingDB's records for patent US20250313563 (The Broad Institute, 2025).
